Source: PMC10845205, “Discovery of novel antibacterial agent for the infected wound treatment: all-hydrocarbon stapling optimization of LL-37” (Theranostics, 2024)
In brackets after ≈: the same amount, converted by molar mass. Positions of bridges follow the written chain, without caps; N, C: chain ends. Non-standard residues stand in square brackets, D forms with d. Residues, ends and D or L forms follow the SMILES beside them. S5 = C=CCCC[C@](C)(N)C(=O)O

Experiments:
[1] = α-helicity by circular dichroism; type: physicochemical; settings: CD, aqueous solution containing 50% trifluoroethanol, from [θ]222, 25 °C
Description: cm2 ∙ dmol−1) after subtracting the background using the following equation:
[θ]=(θ×1000)/( c ×l ×n ), among which, θ is the ellipticity recorded (mdeg), c is the concentration of peptide (M), l is the quartz cuvette’s optical path length (cm), and n is the amino acid number of the peptide. The helicity of peptides was calculated using the following equation: α = [θ]222/[θ]max ×100%, where [θ]222 is the mean residue ellipticity of the peptide at 222 nm; [ θ]max = (−44,000 +250T) (1−k/n), k = 4, n is the number of amino acids, T = 25 °C.
Bacterial strains and culture
Bacterial type stains ATCC 25923 S. aureus, ATCC 12228 S. epidermidis, ATCC […]
aeruginosa and ATCC 13883 K. pneumoniae were obtained from Shanghai Bioresource Collection Center. The bacterial culture medium was purchased from Oxoid and autoclaved according to the instructions from manufacturer. […]
The minimal inhibition concentration (MIC) of the linear and stapled peptides was determined using the microbroth dilution method from the Clinical and Laboratory Standards Institute (CLSI)[2, 3]. […]
10 μL AlamarBlue cell viability reagent (ThermoFisher Scientific, UK) was added to each well, then the plate was re -incubated for a further 2 hours at 37 °C. The MIC was recorded as the minimum concentration of peptides required to completely in hibit bacteria growth. […]

rabbit erythrocytes = assay: Hemolysis assay; settings: rabbit erythrocytes 4% (v/v), 256 μg/mL peptide, 1 h 37 °C, absorbance 570 nm, 0.1% Triton X-100 control
Description: The hemolytic activity of peptides was tested using rabbit erythrocytes (Figure S13). […]
the supernatant was collected and analyzed by RP-HPLC, with a UV detector monitored at 220 nm. Record the peak area of the intact peptide and calculate the percentage of remaining peptide based on the integrated area as, Peptide remaining (%) = peak area of remaining peptide/peak area of intact peptide×100%. Experiments were performed […]
with 200 μL of 4% (v/v) rabbit erythrocyte suspension, and the mixed solution was diluted with rabbit red blood cell suspension to obtain a series of peptide stock solution with different concentrations by fold dilution. […] Separate the supernatant and use a microplate reader (BioTek, USA) to measure hemoglobin release. Measure the absorbance at a wavelength of 570nm and calculate the percentage of hemolysis as follows: hemolysis (%) = (Abspeptide-Absblank)/(Abscontrol-Absblank), where Absblank and Abscontrol were absorbance of samples treated with PBS and 0.1% Triton X-100, […]
N-phenyl-1-naphthylamine (NPN, Macklin, China) was used to evaluate the integrity of OM of E. coli treated with the linear and stapled peptides. […] Subsequently, add a final concentration of 10 μM of NPN in each well of the plate and after incubation for 30 m inutes, record the fluorescence at 420 nm using a microplate reader with an exc itation wavelength of 350 […]

NIH-3T3 cell = settings: CCK-8, 24 h incubation, nonlinear regression, 3 independent measurements
Description: For development of the stapled KR-12 derivatives to treat bacterial infections in vivo, their cytotoxicity was examined via the CCK-8 assay, which could provide a quantitative assessment of cell viability based on the dehydrogenase activity. The mouse embryonic fibroblast NIH-3T3 cell was selected and incubated with various concentrations of KR-12 and its stapled derivatives.
Mouse embryonic fibroblast cells NIH-3T3 and mouse monocyte macrophage leukemia cells RAW264.7 were obtained from Shanghai Institute of Biochemistry and Cell Biology, Chinese Academy of Sciences. These two cells were maintained in DMEM and RPMI-1640, respectively. Both media were supplemented with 10% FBS and 1% 100 U/mL penicillin-streptomycin solution. Cells were maintained at 37 °C in a 5% CO2 and humidified incubator. Replace the culture medium every day until the cell grows to confluence. Cells were then treated with 0.25% trypsin–EDTA and split using fresh medium for either passage or analysis.
CCK-8 cell counting kit was utilized to examine the cytotoxicity of the linear and stapled peptides. NIH-3T3 cell was planked at a density of 1.5×10^4 cell/well in a 96 - well plate and incubated it for 24 hours at 37 °C. Cells were then treated with different concentrations of peptides in fresh DMEM and incubated for 24 hours before the addition of 10 μL CCK -8 and incubation for a further 1 hour. Measure the absorbance at 450nm using a microplate reader (BioTek, USA) and calculate the percentage of cell viability as: cell viability (%) = (Abspeptide-Absblank)/(Abscontrol-Absblank)×100%, where Abscontrol is the absorbance of cells treated with PBS and Abs blank is the absorbance of the cell-free medium. The data was fitted using the nonlinear regression within

For `CC[C@H](C)[C@H](NC(=O)[C@H](CCCNC(=N)N)NC(=O)[C@H](CCCCN)NC(C)=O)C(=O)N[C@H](C(=O)N[C@@H](CCC(N)=O)C(=O)N[C@@H](CCCNC(=N)N)C(=O)N[C@H](C(=O)N[C@@]1(C)CCCC=CCCC[C@@](C)(C(N)=O)NC(=O)[C@H](CC(C)C)NC(=O)[C@H](Cc2ccccc2)NC(=O)[C@H](CC(=O)O)NC1=O)[C@@H](C)CC)C(C)C` [KR-12 (K8, R12)] (Ac-KRIVQRI[S5]DFL[S5]-NH2; staple 8-12), which α-helicity [1] is on record?
The α-helicity was 50.0 ± 0.6%.

And the “H256 (hemolysis percentage)” value (rabbit erythrocytes)?
The value was 77.2 ± 0.3%.

And the “IC50 against NIH-3T3 cell” value (NIH-3T3 cell)?
The value was 52.8 µg/mL (≈ 33.4 µM).
